Legend:
Staphylococcus aureus = experiment: Antimicrobial testing by agar dilution, St. Aereus; format: cell-based; details: after 10, 20, 40 and 60 min at all dilutions 1:100, 1:200, 1:400, 1:800
Description: (§1) The antimicrobial properties of the 7-(4-fluorobenzylidene)-4-(4-fluorophenyl)-2-methoxy-6,7-dihydro-5H-cyclopenta[b]pyridine-3-carbonitrile was studied by the method of agar dilution. Test solutions of each compound was prepared in concentration of 1% using dimethylformamide as a solvent then they are diluted in physiological solution to obtain the final experimental dilutions 1:100, 1:200, 1:400, 1:800. The effect of these substances are compared with furacillin in a controllable study. The testing microbes used were gram positive bacteria Staphylococcus aureus, gram negative bacteria Pseudomonas aeruginosa, Escherichia coli and Candida albicans fungi were taken. The experiments used for this survey were meat-pentonlu agar (EPA) for cultivation of bacteria and Saburo environment for fungi. Each experiment used 1 mL of test solution on each plate 500 min. Add 2 drops of emulsified with microbes feel. All experimental samples were taken from the agar after 10, 20, 40, 60 minutes in the environment on the basis of Patrk planted. Bacteria were cultivated at a temperature of 37° C. for 1 day and the mushroom was kept in a thermostat for […] at a temperature of 28° C. Then the results were checked.

Escherichia coli = experiment: Antimicrobial testing by agar dilution, E. Coli; format: cell-based; details: after 10, 20, 40 and 60 min at all dilutions 1:100, 1:200, 1:400, 1:800
Description: as §1

Pseudomonas aeruginosa = experiment: Antimicrobial testing by agar dilution, Ps. aeruginosa; format: cell-based; details: after 10, 20, 40 and 60 min at all dilutions 1:100, 1:200, 1:400, 1:800
Description: as §1

Candida albicans = experiment: Antimicrobial testing by agar dilution, Candida albicans; format: cell-based; details: after 10, 20, 40 and 60 min at all dilutions 1:100, 1:200, 1:400, 1:800
Description: as §1

melting point: 136 to 138 °C
SMILES: COc1nc2c(c(-c3ccc(F)cc3)c1C#N)CC/C2=C\c1ccc(F)cc1 [7-(4-fluorobenzylidene)-4-(4-fluorophenyl)-2-methoxy-6,7-dihydro-5H-cyclopenta[b]pyridine-3-carbonitrile]
inhibition activity (Staphylococcus aureus): most higher inhibition activity | inhibition activity (Escherichia coli): most higher inhibition activity | inhibition activity (Pseudomonas aeruginosa): most higher inhibition activity | inhibition activity (Candida albicans): most higher inhibition activity
